# According to PubChem BioAssay AID2305 (GlaxoSmithKline (GSK), 2010):
# Tested on: P. falciparum 3D7 growth, pLDH absorbance
# Test: P. falciparum 3D7 growth inhibition, dose response, strain 3D7 (AID 2305)
row,SMILES,IC50 [nM]
1,c1ccc(Oc2ccc(Nc3ccnc4cc(-c5cccc(CN6CCOCC6)c5)ccc34)cc2)cc1,340
2,Clc1cccc(C23N=C(Nc4nc5ccccc5[nH]4)NC2(c2ccccc2)NC(Nc2nc4ccccc4[nH]2)=N3)c1 (centres undefined),520
3,O=C(Nc1cc(F)cc(F)c1)N1CCOC(CCN2CCC(c3ccccc3)CC2)(c2ccc(Cl)c(Cl)c2)C1 (centres undefined),470
4,CS(=O)(=O)c1ccc(-c2cc(C(F)(F)F)nc(N[C@@H]3CCCC[C@H]3OCc3ccccc3)n2)cc1,60
5,N#Cc1ccc(N2CCN(C(=O)c3cccc(-c4noc(C(F)(F)F)n4)c3)CC2)nc1,220
6,CCN(CCCN1CCCCC1)c1cc(C)nc(Nc2ccc(C(C)C)cc2)n1,540
7,CC1CCC(C[C@@H](C(=O)N[C@H](C(=O)Nc2nccs2)[C@@H](C)O)[C@H](CCC(F)(F)F)N(O)C=O)CC1 (some centres undefined),540
8,CCN(CCCN1CCCCC1)c1cc(C)nc(Nc2cc(C(F)(F)F)ccc2C)n1,860
9,O=C(Nc1ccc(CN2CCOCC2)cc1)c1ccc(-c2cc(Cl)ccc2Cl)o1,610
10,COc1ccccc1CCNc1nc(C)cc(N[C@@H](CC(C)C)C(=O)NCc2cccs2)n1,790
11,COc1ccc(C2CC(=O)C3=C(C2)NC(C)=C(C(=O)OC(C)C)C3c2ccccc2F)cc1OC (centres undefined),60
12,COc1ccc(-c2nonc2NC(=O)c2ccc(OC(C)C)cc2)cc1OC,630
13,O=C(NCCc1cccc(F)c1)c1ccc(N2CCN(c3ccncc3)CC2)cn1,1020
14,CCc1c(C(=O)NC2CCC(N3CCC(c4ccccc4OC)CC3)CC2)[nH]c2ccc(OC)cc12 (centres undefined),1110
15,COc1ccccc1C1CCN(C2CCC(NC(=O)/C=C/c3cccc(C(F)(F)F)c3)CC2)CC1 (centres undefined),810
16,CCCN1CCC(NCc2cn(C)nc2-c2ccc(Oc3ccccc3)cc2)CC1,1440
17,Cc1ccccc1C1CCN(C2CCC(NC(=O)/C=C/c3cc(F)ccc3F)CC2)CC1 (centres undefined),1040
18,COc1ccc(-c2cccc(NC(=O)c3ccc(F)cc3)c2)cc1CNC(C)C,1380
19,O=C(Nc1ccc(F)cc1)c1ccc(C(=O)NC2CCN(CC3CCCCC3)CC2)cc1,540
20,O=C(Nc1ccc2c(c1)CCC2)c1ccc(CN2CCCN(Cc3cccc(O)c3)CC2)cc1,890
21,CCOC(=O)c1cc(C(=O)NCCCCN2CCC(c3cn(C)c4ccccc34)CC2)ccc1-c1ccc(C(F)(F)F)cc1,1200
22,CCCCCCC(C)c1cc(O)c2c(c1)OC(C)(C)C=C2c1ccncc1 (centres undefined),730
23,CCCCCCCNC(=O)NCC1CCCN(CCCCCNC(=O)/C=C/c2ccc(Cl)c(Cl)c2)C1 (centres undefined),1040
24,O=C(Nc1ccc(S(=O)(=O)NCCCN2CCOCC2)cc1)c1cc(-c2ccccc2)n[nH]1,770
25,O=C(Nc1ccc(C(F)(F)F)cc1)c1ccc(S(=O)(=O)NC2CCN(CC3CCCCC3)C2)cc1 (centres undefined),720

row,SMILES,IC50 [nM]
1,Cc1ccccc1C1CCN(C2CCC(NC(=O)/C=C/c3cccc(Cl)c3)CC2)CC1 (centres undefined),890
2,CN1CC=C(c2csc3ccc(NC(=O)Nc4ccc(-c5ccncc5)c(Cl)c4)cc23)CC1,680
3,Cc1cc(C2CCN(CCCCNC(=O)c3ccc(-c4ccc(C#N)cc4)cc3)CC2)c(C)cc1O,850
4,NC(=O)c1cc2nc(Nc3ccc(F)cc3)nc(NC3CCC3)c2[nH]1,200
5,O=C(/C=C/c1ccc(Cl)c(Cl)c1)NCCCCCN1CCCN(C(=O)Nc2ccc(F)c(Cl)c2)CC1,800
6,Cc1cc2c(NC(=O)NC3CCN(CCc4ccccc4Cl)CC3)cccc2cn1,390
7,CN(C)CCCOc1cccc(NC(=O)Nc2ccc(Cl)c(Cl)c2)c1,960
8,CC[C@H]1CN2CC[C@@H]1C[C@H]2[C@H](O)c1cc(-c2cc(Cl)cc(Cl)c2)nc2ccc(OC)cc12,240
9,Cn1cccc1C(=O)Nc1cccc(-c2nn3ccccc3c2-c2ccnc(Nc3ccc4c(c3)OCCO4)n2)c1,1350
10,O=C(Nc1cc(Cl)ccc1O)c1cc(-c2ccccc2O)no1,1090
11,Clc1ccc(Nc2nc(-c3ccccn3)cs2)nc1,770
12,N#Cc1ccc(-c2ccc(C(=O)NCCCCN3CCC(n4cnc5ccccc54)CC3)cc2)cc1,910
13,COc1ccc(CN2CCN(Cc3cc(Cl)ccc3O)CC2CCO)c(C)c1C (centres undefined),1490
14,CN1CCN(CCCN(Cc2csc(-c3ccc(CNCc4ccccc4)cc3)n2)C(=O)c2cc(F)cc(F)c2)CC1,710
15,CN1CCCN(c2ccnc3cc4c(cc23)N(C(=O)c2ccc(C(F)(F)F)cc2)CC4)CC1,790
16,CN1CCCN(Cc2cccc(-c3cccc(NC(=O)c4cccc(C#N)c4)c3)c2)CC1,820
17,COc1cc2nc(SCCCC#N)n(C3CCCCCC3)c(=N)c2cc1OC,1140
18,CC1(C)N=C(N)NC(Nc2ccc(Cl)cc2)=N1,340
19,O=C(Nc1cccc(C(F)(F)F)c1)Nc1ccc(Cl)c(C(F)(F)F)c1,890
20,Cc1cc(N[C@@H](Cc2ccccc2)C(=O)NCCc2ccccc2)nc(NCc2ccccc2C)n1,880
21,COc1ccc(-c2ccc(Nc3cccc(S(=O)(=O)CCN4CCC(CCN(C)C)CC4)c3)nc2)cn1,1120
22,Cc1ccc(C2CCN(CCCCNC(=O)c3ccc(-c4ccc(C#N)cc4)cc3)CC2)c(O)c1,290
23,COc1cccc(C2(c3cccc(OC)c3)N=C(N)N(CCCc3ccccc3)C2=O)c1,260
24,COc1cc2ncnc(Nc3ccc4nc(-c5ccccc5)[nH]c4c3)c2cc1OC,440
25,Cc1ccc([C@@H]2CC(=O)CC(c3ccccn3)[C@H]2[N+](=O)[O-])cc1 (some centres undefined),860

row,SMILES,IC50 [nM]
1,O=C(/C=C/c1ccc(Cl)c(Cl)c1)NC1CCC(N2CCC(c3c[nH]c4ccccc34)CC2)CC1 (centres undefined),880
2,COc1ccc(CNC2CCN(C)CC2)cc1-c1ccc(S(=O)(=O)NCc2ccccc2)cc1,600
3,CCOc1cc(C(=O)NCc2ccc(Cl)c(Cl)c2)ccc1-c1nc2ccc(Cl)cc2[nH]1,800
4,COc1ccc(CNCCc2cccs2)cc1-c1cccc(S(=O)(=O)NCCN2CCCC2)c1,880
5,S=C(NCC1CCCCC1)NC1CCC(CN2CCC(c3c[nH]c4ccccc34)CC2)CC1 (centres undefined),1110
6,Cc1cc2cc(/C=C/C(=O)NC3CCC(CCN4CCc5ccc(C#N)cc5CC4)CC3)ccc2[nH]1 (centres undefined),880
7,COc1ccc(C(=O)NCc2ccccc2-c2ccc(C(C)(C)C)cc2)cc1O,100
8,c1ccc(Oc2ccc(Nc3ccnc(Nc4cccc(CNCCCN5CCOCC5)c4)n3)cc2)cc1,1040
9,CCN1CCC(N2CCC(C(=O)Nc3cccc(-c4cccc(Cl)c4)c3)CC2)CC1,1080
10,CCCNS(=O)(=O)c1ccc(NC(=O)C(C)Oc2ccc([N+](=O)[O-])cc2)cc1 (centres undefined),720
11,COCCn1c(C)nc2ccccc2c1=O,1460
12,CN1CCC(NCc2cccc(-c3cccc(S(=O)(=O)NCc4ccccc4)c3)c2)CC1,750
13,CC(C)=CC1C(C(=O)n2c(N)nc3ccccc32)C1(C)C (centres undefined),190
14,COc1ccc(-c2csc3ncnc(Cl)c23)cc1,780
15,O=C(c1ccc(Cl)cc1)C1CCN(CCCOc2ccc3c(c2)CCNCC3)CC1,1150
16,Cc1ccc(F)c(OCC2CCN(c3ncc(C(=O)NC4CC4)cc3Cl)CC2)c1,900
17,O=c1[nH]ccc2nc(N[C@@H]3CCNC3)nc(Nc3cccc(S(=O)(=O)N4CCOCC4)c3)c12,1230
18,CCNc1cc(C)nc(Nc2ccc(NC(=O)Cc3ccc(OC)cc3)cc2)n1,1380
19,NC[C@H](CC1CCCCC1)NC(=O)c1ccc(-c2ccnc3[nH]ccc23)s1,950
20,Nc1nc(N)c2cc(NS(=O)(=O)c3ccc(-c4ccccc4)cc3)ccc2n1,700
21,COc1ccc2nccc([C@@H](O)CN3CCC(NCc4cc5oc(=O)[nH]c5cc4Cl)CC3)c2c1,380
22,Cc1cc(C(=O)Nc2ccc3c(ccn3C3CCCN(Cc4ccc(C(F)(F)F)cc4F)CC3)c2)no1 (centres undefined),760
23,CCN=C1NC2=C(CC(C(C)(C)C)CC2)C2(CCC(C(C)(C)C)CC2)S1 (centres undefined),830
24,O=C(Nc1cccc(-c2cccc(-c3nc4ccc(C(F)(F)F)cc4[nH]3)c2)c1)c1cccnc1Cl,660
25,O=C(NC1CCN(CC2(c3ccccc3F)CCCC2)CC1)c1ccn[nH]1,1000

row,SMILES,IC50 [nM]
1,COc1cc2nc(N3CCC(CNC(=O)/C=C/c4ccccc4F)CC3)nc(N)c2cc1OC,580
2,CC(C)(C)C(=O)N1CCN(c2ccc([N+](=O)[O-])c(NC3CC3)c2)CC1,940
3,Cc1nnsc1C(=O)Nc1cccc(-c2cccc(-c3nc4ccc(F)cc4[nH]3)c2)c1,220
4,COc1cc(C)nc2ccc(NC(=O)Nc3ccc([N+](=O)[O-])cc3C)cc12,600
5,Cc1cc(NC(=O)c2sc3ccccc3c2O)no1,810
6,CCN(c1ccccc1)S(=O)(=O)c1ccc(NC(=O)c2cc(-c3cc(C)ccc3O)n[nH]2)cc1,770
7,O=C(/C=C/c1ccc(Cl)cc1)NCCCCCN1CCCN(C(=O)Nc2ccc(Cl)c(C(F)(F)F)c2)CC1,910
8,Fc1ccc(C=NNc2ccnc3ccccc23)cc1,710
9,COc1cc(Cc2cnc(N)nc2N)cc(OCCCCC2SC(=O)NC2=O)c1OC (centres undefined),30
10,CN1CCC(N2CCN(Cc3ccc(-c4ccc(-c5nc6ccccc6[nH]5)s4)cc3)CC2)CC1,140
11,COC(=O)c1ccc(OCC(O)CO)cc1O (centres undefined),740
12,CN(C)CCNC(=O)c1ccc(-c2ccc3c(Nc4ccccc4)c(C(N)=O)cnc3c2)cc1,730
13,O=C(Nc1cccnc1)c1cc(-c2cccnc2)nc2ccc(Br)cc12,640
14,CC(C)N1CCN(C(=O)c2ccc(CNCCCN3CCN(c4cccc(Cl)c4Cl)CC3)o2)CC1,740
15,CCCC(CNC(=O)c1cc2c(Cl)cc(Cl)cc2[nH]1)CNc1cc(=O)c2ccccc2[nH]1 (centres undefined),900
16,COc1ccc2c(c1)CCN(CCN1CCC(CNC(=O)c3ccc(-c4ccc(C#N)cc4)cc3)CC1)C2,620
17,O=C(CSc1n[nH]c(=O)n1Cc1ccccc1)Nc1ccccc1-c1ccccc1,950
18,COc1ccc(-c2nc3c(N)nc(N)nc3nc2C(C)C)cc1,190
19,O=C(Nc1cccc([N+](=O)[O-])c1)Nc1cccc(C(F)(F)F)c1,770
20,Cn1cncc1CNCc1ccc(-c2cccc(-c3nc4ccccc4[nH]3)c2)cc1,230
21,CC(CNC(=O)C(c1cc2ccccc2o1)N1CCN(C(c2ccccc2)c2ccccc2)CC1)c1ccccc1 (centres undefined),630
22,CC(C)(C)c1ccc(/C=C/C(=O)NCCCCCN2CCC(c3c[nH]c4ccccc34)CC2)cc1,1090
23,COc1ccc(S(=O)(=O)N2CCC3(CC2)OCC(=O)NC3c2ccc(Cl)c(Cl)c2)cc1 (centres undefined),640
24,C#CCCOc1ccc2ccccc2c1CNCCCCCCNCc1c(OCCC#C)ccc2ccccc12,810
